# Source: PMC10146281, “Pharmacokinetic and Pharmacodynamic Characteristics of Pelubiprofen Tromethamine vs. Pelubiprofen in Healthy Subjects” (Pharmaceutics, 2023)
# Read-outs that look alike come from different tables or passages of the source.
# Biological target: T1, cyclooxygenase-2 (COX-2) (Homo sapiens, UniProt P35354)
# T1 sequence (P35354 18-604): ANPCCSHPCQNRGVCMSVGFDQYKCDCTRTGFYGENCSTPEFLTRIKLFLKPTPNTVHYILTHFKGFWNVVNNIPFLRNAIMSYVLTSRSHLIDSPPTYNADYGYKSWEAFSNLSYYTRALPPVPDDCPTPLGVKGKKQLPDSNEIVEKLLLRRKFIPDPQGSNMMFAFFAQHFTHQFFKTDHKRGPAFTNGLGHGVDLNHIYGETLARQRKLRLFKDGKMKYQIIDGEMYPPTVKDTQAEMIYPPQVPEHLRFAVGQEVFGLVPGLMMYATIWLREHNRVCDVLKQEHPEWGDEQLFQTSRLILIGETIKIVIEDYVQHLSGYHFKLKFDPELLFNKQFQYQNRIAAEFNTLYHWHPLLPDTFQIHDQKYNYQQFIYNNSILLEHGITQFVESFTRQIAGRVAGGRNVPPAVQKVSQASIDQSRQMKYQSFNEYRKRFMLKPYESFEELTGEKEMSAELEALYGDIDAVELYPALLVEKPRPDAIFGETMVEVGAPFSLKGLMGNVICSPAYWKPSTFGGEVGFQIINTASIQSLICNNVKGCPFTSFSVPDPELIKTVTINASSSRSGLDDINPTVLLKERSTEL
# Experimental: To analyze the pharmacodynamic (PD) characteristics, approximately 1 mL of blood was sampled from the subjects in Study I, who had agreed to participate in the associated PD evaluation. The blood sampling was performed before administration (0 h) and at the following time points after administration: 0.083 h (5 min), 0.167 h (10 min), 0.33 h (20 min) and 0.5, 0.75, 1, 1.5, 2, 2.5, 3, 3.5, 4, 6, and 8 h. Therefore, for each subject, the blood sampling was performed 15 times in each period. While the PD analysis was performed on the same schedule as the PK analysis, only period 1 and 2 results were included in the analyses, and the post study visit was not performed.
# The pharmacodynamic (PD) analysis was performed on the subjects in Study I, who had agreed to participate in the PD evaluation. For pharmacodynamic evaluation, the lipopolysaccharide (LPS) from E. coli O111:B4 (Sigma-Aldrich, Seoul, Republic of Korea) and the prostaglandin E2 (PGE2) enzyme-linked immunosorbent assay (ELISA) monoclonal kit (Cayman Chemical, MI, USA) were used. This study was conducted on healthy subjects, and LPS was added to sampled blood to induce inflammatory gene expression. The following procedures were applied for the PGE2 concentration analysis of subjects in Study I, who had agreed to participate in the pharmacodynamic evaluation.
# Into 1.0 mL of sampled blood, 10 μL of lipopolysaccharide (LPS) was added. The mixture was centrifuged at […] and 4 °C for 10 min. By mixing the PGE2 ELISA standard and 1.0 mL of ELISA buffer, the standard reagents were produced at 1000, 500, 250, 125, 62.5, 31.3, 15.6, 7.8 pg/mL concentrations. Subsequently, to each well of the 96-well plate, 50 μL of the standard reagent, PGE2 acetylcholinesterase (AChE) tracer, and PGE2 monoclonal antibody were added. Each plate was then covered with a plastic film to be cultured at 4 °C for 18 h. Then, the wells were washed with the buffer solution 5 times, after which 200 μL of Ellman’s reagent was added to each well. The plate was covered with film once more to be placed on an orbital shaker for 60 min. The plate was read at a wavelength of 410 nm.
# Pharmacodynamic (PD) was analyzed with data from the first and second periods. The plasma Prostaglandin E2 (PGE2) concentration in the first and second periods of Study I was measured using the enzyme-linked immunosorbent assay (ELISA) at the same time points as in the PK analysis: before investigational drug administration (0 h) and after drug administration at 0.083 h (5 min), 0.167 h (10 min), 0.33 h (20 min), and 0.5, 0.75, 1, 1.5, 2, 2.5, 3, 3.5, 4, 6, and 8 h. Therefore, for each subject, the measurements were taken 15 times in each period. While the PD analysis was performed on the same schedule as the PK analysis, only period 1 and 2 results were included in the analyses, and the post-study visit was not performed.
# The PGE2 concentration and the cyclooxygenase-2 (COX-2) inhibitory effect derived from baseline (0 h time point before drug administration) values for each subject in Study I were visualized. The decreased level of calibrated PGE2 concentration performed in accordance with the concentration at baseline for each subject was tested as the extent of COX-2 inhibition, and the GMR and respective 90% CI of the COX-2 inhibition were applied in the PD analysis.
# The pharmacodynamic (PD) data from the subjects in Study I, who had agreed to participate in the PD evaluation, were analyzed as follows to check for outliers. Grubbs’ test was performed when the normality of the data was satisfied; otherwise, a boxplot was drawn for log-transformed values, after which values outside the interquartile range (IQR) were checked for subsequent use in Grubb’s test. For significant outliers, the data excluding the values were analyzed once again.
# [1] = Study I, all subjects N = 30, 25 mg pelubiprofen tromethamine vs. 30 mg pelubiprofen
# [2] = Study I, without outliers N = 28, 25 mg pelubiprofen tromethamine vs. 30 mg pelubiprofen
Structure (SMILES),"Tmax,i (time of peak baseline-corrected COX-2 inhibition) (Study I periods 1 and 2, all subjects N = 30, single oral 25 mg pelubiprofen tromethamine, median (minimum–maximum))","Tmax,I (time of peak baseline-corrected COX-2 inhibition) (Study I periods 1 and 2, without outliers (A03 and A08) N = 28, single oral 25 mg pelubiprofen tromethamine, median (minimum–maximum))",Geometric Mean Ratio (90% CI) of AUIC [1],Geometric Mean Ratio (90% CI) of Imax [1],"Geometric Mean Ratio (90% CI) of Tmax,i [1]","maximum COX-2 inhibitory effect compared to the reference (Study I, all subjects, 25 mg pelubiprofen tromethamine compared to 30 mg pelubiprofen)","COX-2 inhibitory effect compared to the reference (Study I, excluding two outlier subjects (A03 and A08), 25 mg pelubiprofen tromethamine compared to 30 mg pelubiprofen)",Geometric Mean Ratio (90% CI) of AUIC [2],Geometric Mean Ratio (90% CI) of Imax [2],"Geometric Mean Ratio (90% CI) of Tmax,I [2]","Geometric Mean Ratio (90% CI) of Imax (Study I, without outliers N = 28, 25 mg pelubiprofen tromethamine vs. 30 mg pelubiprofen, listed as pelubiprofen tromethamine)","time after administration until which COX-2 inhibition was maintained (Study I, single oral 30 mg pelubiprofen)","Tmax,I (time of peak baseline-corrected COX-2 inhibition) (human, in vivo, po, 30 mg)","Tmax,PGE2 (human, in vivo, po, 30 mg)","Tmax,i (time of peak baseline-corrected COX-2 inhibition) (human, in vivo, po, 30 mg)"
"CC(C(=O)O)c1ccc(/C=C2\CCCCC2=O)cc1 (stereo not drawn) [Pelubiprofen Tromethamine, pelubiprofen tromethamine]",0.50 (0.00–3.50) h,0.50 (0.17–3.50) h,1.09 (0.94–1.27),0.98 (0.95–1.02),1.01 (0.75–1.35),approximately 98%,approximately 98%,1.03 (0.91–1.18),0.98 (0.95–1.01),1.00 (0.73–1.36),approximately 0.98,–,–,–,–
"CC(C(=O)O)c1ccc(/C=C2\CCCCC2=O)cc1 (stereo not drawn) [Pelubiprofen, 2-[4-(oxocyclohexylidenemethyl)-phenyl] propionic acid]",–,–,–,–,–,–,–,–,–,–,–,approximately 8 h,0.50 (0.33–3.50) h,0.08 (0.00–8.00) h,0.50 (0.33–3.50) h
